Reference: US20250171445A1, “DEUTERIUM-ENRICHED PIPERIDINYL-METHYL-PURINE AMINE SALTS, CRYSTALLINE FORMS, AND THEIR USE IN TREATING MEDICAL DISEASES AND CONDITIONS” (K36 Therapeutics, Inc., priority 2023, published 2025)

Biological target: T1, recombinant human NSD2 (Homo sapiens, UniProt O96028)
T1 construct: (amino acids 2-end); His tag (N); host or cells: Sf9 insect cells
T1 sequence (O96028 2-1365 limits assumed): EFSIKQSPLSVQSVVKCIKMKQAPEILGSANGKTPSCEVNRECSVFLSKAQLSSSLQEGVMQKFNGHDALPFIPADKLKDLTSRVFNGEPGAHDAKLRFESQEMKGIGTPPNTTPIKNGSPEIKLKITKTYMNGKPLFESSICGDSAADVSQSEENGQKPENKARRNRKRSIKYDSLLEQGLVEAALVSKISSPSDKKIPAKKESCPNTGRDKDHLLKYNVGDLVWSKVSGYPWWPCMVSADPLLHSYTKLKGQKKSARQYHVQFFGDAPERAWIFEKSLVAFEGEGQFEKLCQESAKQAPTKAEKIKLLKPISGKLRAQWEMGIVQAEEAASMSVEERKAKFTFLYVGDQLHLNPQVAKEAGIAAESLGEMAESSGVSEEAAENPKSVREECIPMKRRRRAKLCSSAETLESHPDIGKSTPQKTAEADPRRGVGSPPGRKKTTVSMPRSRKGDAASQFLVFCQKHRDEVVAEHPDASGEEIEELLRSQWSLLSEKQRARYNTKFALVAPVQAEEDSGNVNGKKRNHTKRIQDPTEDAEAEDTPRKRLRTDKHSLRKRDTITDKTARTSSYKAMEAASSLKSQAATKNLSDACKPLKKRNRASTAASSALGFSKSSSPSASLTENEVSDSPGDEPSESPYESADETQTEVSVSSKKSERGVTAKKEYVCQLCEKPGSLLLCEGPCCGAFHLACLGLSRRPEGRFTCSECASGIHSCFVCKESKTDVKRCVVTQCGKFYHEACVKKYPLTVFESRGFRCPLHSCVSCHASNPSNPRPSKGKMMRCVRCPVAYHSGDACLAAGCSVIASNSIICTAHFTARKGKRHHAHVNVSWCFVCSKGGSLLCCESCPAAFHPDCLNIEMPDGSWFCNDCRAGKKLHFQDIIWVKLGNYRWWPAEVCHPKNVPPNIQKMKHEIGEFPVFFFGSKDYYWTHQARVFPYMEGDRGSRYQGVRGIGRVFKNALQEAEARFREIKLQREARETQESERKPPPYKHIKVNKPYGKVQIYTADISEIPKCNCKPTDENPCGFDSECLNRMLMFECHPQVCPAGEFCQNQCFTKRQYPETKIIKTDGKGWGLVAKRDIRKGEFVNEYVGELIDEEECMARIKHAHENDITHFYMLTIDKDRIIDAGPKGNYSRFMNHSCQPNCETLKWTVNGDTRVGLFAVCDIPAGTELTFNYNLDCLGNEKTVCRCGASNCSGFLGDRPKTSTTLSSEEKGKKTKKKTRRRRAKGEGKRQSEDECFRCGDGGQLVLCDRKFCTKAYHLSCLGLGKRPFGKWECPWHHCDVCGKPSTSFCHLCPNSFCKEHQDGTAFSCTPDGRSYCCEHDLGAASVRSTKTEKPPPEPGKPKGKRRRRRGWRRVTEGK
Assay: NSD2 inhibition assay (3H-SAM histone methyltransferase, oligonucleosome substrate)
Type: biochemical
Details: recombinant human NSD2 (aa 2-end, His tag) 2 nM, chicken oligonucleosomes 0.05 mg/ml, 3H-SAM 1 μM, 1 hour at 30° C.
Method: The NSDS2 inhibitory activity of a compound can be evaluated using a NSD2 inhibition assay, such as the NSD2 inhibition assay described herein below.
A reaction mixture can be prepared by adding oligonucleosomes from Chicken (0.05 mg/ml) to freshly prepared reaction buffer containing 50 mM Tris-HCl (pH 8.5), 50 mM NaCl, 5 mM MgCl2, 0.01% Brij35, 1 mM DTT, and 1% DMSO followed by the addition of recombinant human NSD2, (amino acids 2-end) with N-terminal His tag (2 nM; GenBank Accession No. NM_001042424; MW=155.5 kDa; expressed in Sf9 insect cells) and gentle mixing. The test compound is diluted in DMSO, added to the reaction mixture in nanoliter amounts (using, e.g., Acoustic Technology (Echo 550, LabCyte Inc. Sunnyvale, CA)) and incubated for 20 minutes at room temperature. The reaction may be initiated by addition of S-Adenosyl-L-[methyl-3H]methionine (3H-SAM; 1 μM), and the mixture is then incubated for 1 hour at 30° C. The reaction mixture can be delivered to filter paper and the methylated substrate quantified by scintillation counting. Data analysis may be performed using Excel and GraphPad Prism software for IC50 curve fits. For additional information on the histone methyltransferase assay, see, for example, Horiuchi K Y, et al., “Assay Development for Histone Methyltransferases,” Assay Drug Dev Technol. 2013 May; 11(4):227-36.

`[2H]C([2H])([2H])Oc1cc(F)c(-c2cc(Cn3cnc4c(N)ncnc43)c(N3CCC[C@](N)([C@H](O)C(F)F)C3)cn2)cc1F` was tested, and the IC50 was under 10 nM.
